The values that follow come from a melting point compilation (Tetko et al.; mined from patent text by program, amines drawn as free bases though some values may be those of a salt).

In the case of `COc1ccc(-c2cc(-c3ccccc3)[nH]c2C(=O)Nc2ccc(C(=O)NO)cc2)cc1`, the melting point lay within 234 to 235 °C.
`COc1cc2c(cc1-c1cc(F)ccc1F)NC(=O)CC(c1cccc(-n3ccnn3)c1)=N2` had a melting point of 241 °C.
The same measure for `CCOC(=O)c1c(C)nc(Cl)c([N+](=O)[O-])c1N`: 73 to 75 °C; for `Cc1oc(C)c2c(=O)c3c(=O)ccc(=O)c=3c(=O)c12`: over 270 °C.
The compound `S=C=NCCC1CC(c2ccccc2)=NO1` (stereo not drawn) gave a melting point of 54 to 56 °C.
Regarding `CC(CSc1nn(-c2ccccc2)c2c1CCC2)C(=O)O` (stereo not drawn), the melting point fell in the range of 84 to 85 °C.
With `COC(=O)c1ccc(OCCN)cc1`, the melting point was 53 to 55.5 °C.
`CCCCCCOc1c(F)cc(F)c(C(N)=O)c1F` showed a melting point of 89 to 90 °C.
As to `CN(Cc1ccc(NC(=O)C2=Cc3cc(-c4ccc(Cl)s4)ccc3S(=O)(=O)CC2)cc1)C1CCOCC1`, the melting point lay within 221 to 222 °C.
For the compound `O=C(O)CCCCCCCCCCNC(=O)C(CS)Cc1ccccc1` (stereo not drawn), the melting point was 104 to 105 °C.
With `CCNC(=O)n1nc(Oc2c(Cl)cc(C(F)(F)F)cc2Cl)cc1COC`, the melting point fell in the range of 106 to 108 °C.
Next, `COc1ccc(Nc2nc3cc4c(cc3[nH]2)C(C)(C)CC(=O)N4)cc1`: 283 to 287 °C; `ON=C(Cl)c1ccc(F)cc1`: 74.5 to 75 °C; `COc1cc2[nH]c(=O)n(CC(C)S)c(=O)c2cc1OC` (stereo not drawn): 262 to 264 °C.
For `Cc1ccc(C(=O)Nc2cccnc2)c(Nc2ccc3cn[nH]c3c2)n1`, the melting point was over 280 °C.
`COc1ccccc1/C=C/CN1CCC(=O)C(C(c2ccccc2)c2ccccc2)C1` (stereo not drawn) displayed a melting point of 117 to 118 °C.
For `CCOC(O)(OCC)C(Cc1ccc2ccccc2c1)NC(=O)OC(C)(C)C` (stereo not drawn), the melting point was found to be 87 °C.
`O=C(Oc1cccc2c(-c3ccccc3)c3cccc(OC(=O)c4ccccc4)c3c(OC(=O)c3ccccc3)c12)c1ccccc1` showed a melting point of 255 °C.
Take `Fc1ccc(-c2ncc(Br)cn2)cc1`: the melting point is 156 °C.
In turn, `CCOC(=O)COCCN(C)C(=O)c1c(-c2ccc(C(C)(C)C)cc2)n(C)n(-c2ccc(C#N)cc2)c1=O` returned a melting point of 192 to 194 °C.
Regarding `CC(=O)OC1CCC2(C)C(=CC(=O)C3C2CCC2(C)C(OC(C)=O)CCC32)C1` (stereo not drawn), the melting point was in the range of 220 to 221 °C.
The same measure for `CC(=O)OC12CC3CC(CC(C3)C1)C2`: 144 to 145 °C; for `Cc1cccc(SCn2cc(F)cnc2=O)c1`: 124 °C.
Take `COc1ccc2[nH]cc(CC(C)(C)N)c2c1`: the melting point lay within 114 to 116 °C.
`CCCc1nc(C=O)cc(N)c1F` registered a melting point of 113 to 114 °C.
On to `COc1cc(C2c3cc4c(cc3C(N)C3COC(=O)C23)OCO4)cc(OC)c1O[Si](C)(C)C(C)(C)C` (stereo not drawn), for which the melting point lay in the range of 236 to 238 °C.
Next, `COc1cc[nH]c1C=C1C(=O)Nc2cccc(C#CC(O)c3ccc(OCC(=O)OC(C)(C)C)cc3)c21` (racemic): 173 to 175 °C.
Regarding `CC12C=CC(C)(O1)C(Br)C(=O)C2Br` (stereo not drawn), the melting point is 115 to 120 °C.
In turn, `CC(=O)C(O)C1OC(S(=O)(=O)c2ncc(Cl)cn2)C(O)(C(C)=O)C(O)(C(C)=O)C1(O)C(C)=O` (stereo not drawn) came in with a melting point of 180 °C.
Compound `CN(C)CCCn1c2ccc(O)cc2c2c3c(c(-c4ccccc4)cc21)C(=O)NC3=O` yielded a melting point of 185 to 189 °C.
`CCCc1c(OCCCOc2cccc(NC(=O)C(=O)O)c2C)ccc(C(C)=O)c1O` showed a melting point of 146 to 148 °C.
Turning to `c1ccc2nc(N3CCNCC3)cnc2c1`, the melting point was in the range of 74 to 76 °C.
The compound `CCN(CC)c1ccc(NC(=O)c2cnn(-c3ccc(F)cc3)c2C)cc1C#N` displayed a melting point of 135 to 136 °C.
`CNC(=O)C1OC(n2cnc3c(NCc4cc(Cl)ccc4OCc4cc(C)no4)ncnc32)C(O)C1NC(=O)OC(C)(C)C` (stereo not drawn): the melting point lay within 135 to 137 °C.
In turn, `CC(O)Cn1cc(C2=C(c3cn(CC(C)O)c4ccccc34)C(=O)NC2=O)c2ccccc21` (stereo not drawn) showed a melting point of 133 to 135 °C.
Consider `COC(=O)C1=C(C)NCC(C)(C(=O)OC)C1c1ccccc1C=C[Si](C)(C)C` (stereo not drawn), for which the melting point lay within 148 to 150 °C.
The same measure for `O=c1oc2cc(O)c(O)cc2c(O)c1-c1coc2c1c(=O)oc1cc(O)c(O)cc12`: over 300 °C; for `Cc1cc(C)c(C(=O)c2ccc(Cl)cc2)c(C)c1`: 65.5 to 66.5 °C.
`COc1cc(COc2nn(-c3ccccc3)cc2-c2cnco2)ccc1OCc1nc(-c2ccco2)oc1C`: the melting point fell in the range of 153 to 154 °C.
For the compound `Cn1cc(-c2ccccc2)c(=O)c(-c2cccc(S(C)(=O)=O)c2)c1`, the melting point lay within 176 to 181 °C.
Regarding `CC1=C(OCC(C)C)CCC(C)(C)C1(O)C[Si](C)(C)C` (stereo not drawn), the melting point was 50 °C.
Compound `O=S1(=O)NCC(O)c2ccsc21` (stereo not drawn) yielded a melting point of 138 to 140 °C.
For `CC12CC(F)C3c4ccc(O)cc4CC(CCCCCN4CCCC4)C3C1CCC2O` (stereo not drawn), the melting point was in the range of 95 to 118 °C.
The compound `CN(C1=CC(=O)C(=O)c2ccccc21)C1CCCCC1` showed a melting point of 168 to 170 °C.
As to `CCOC(=O)Nc1ccc(N2CCC(=O)CC2)cc1`, the melting point lay within 145 to 146 °C.
In turn, `CCCCNS(=O)(=O)CC(O)C(O)C(CC1CCCCC1)NC(=O)CCC(C)C` (stereo not drawn) yielded a melting point of 88 to 92 °C.
Compound `COc1ccc(CC(=O)NCCc2ccc(N)cc2)cc1` gave a melting point of 112 to 114 °C.
In turn, `CCOC(=O)C1=C(C)Nc2nc(N3CCOCC3)nc(N3CCOCC3)c2C1c1cccc(OC)c1OC` (stereo not drawn) displayed a melting point of 194 °C.
Turning to `COc1ccc2c(c1)C(O)c1cc(CO)ccc1O2` (stereo not drawn), the melting point lay within 142 to 143 °C.
In turn, `COC(=O)C(NS(=O)(=O)c1ccc(-c2ccc(NC(=O)c3oc4cccc(C(C)OC)c4c3C)cc2)cc1)C(C)C` (stereo not drawn) came in with a melting point of 186 to 188 °C.
Compound `CC1(C)C=C(c2c(N)c(=O)c2=O)c2cc(C#N)ccc2O1` yielded a melting point of over 250 °C.
The compound `CCCc1nc2c(N)nc3ccccc3c2n1CCC(=O)NC` gave a melting point of 177 to 178 °C.
The same measure for `Fc1cccc(C(c2ccccc2)(c2cccc(F)c2)n2ccnc2)c1`: 165 to 167 °C.
Compound `Cc1cc(-n2cnc(CO)c2)ccc1C(C)C` gave a melting point of 98 to 102 °C.
The same measure for `COc1ccc(C(=O)Nc2ccccc2)cc1NCc1ccc(OC(C)=O)cc1`: 193 to 195 °C; for `COc1ccccc1C(=O)NCCc1ccc(CC(=O)O)cc1`: 154 to 155 °C; for `CCOC(=O)c1c(CCCCn2cncn2)nc2sc3cnccc3c2c1-c1ccc(OC)c(OC)c1`: 118 to 119 °C.
On to `COC(=O)CCSc1cc(=O)c2c(O)cc(O)c(C3CCN(C)CC3O)c2o1` (stereo not drawn), for which the melting point was found to be 78 °C.
In turn, `OCc1nccc(N2CCCC2)c1Cl` came in with a melting point of 85 to 86 °C.
For `CC1(C)CC(C)(C)CC(O)(C#Cc2ccccn2)C1`, the melting point lay within 126 to 127 °C.
The same measure for `O=C1Nc2ccccc2C(c2ccccc2)N1CCO` (stereo not drawn): 141 °C; for `CC(C)c1ccc2[nH]c(=O)c(C(=O)c3ccccc3)c(O)c2c1`: 270 °C.
The same measure for `COc1ccccc1NC(=O)Nc1ccc(CC(=O)NC(CC(C)C)c2ncc(CCC(=O)O)s2)cc1` (stereo not drawn): 197 to 198 °C.
